These results are taken from patent EP0056458B1, “Nitrosourea derivatives, a process for preparing same and therapeutic compositions” (Tanabe Seiyaku Co., Ltd., priority 1981, dated 1982).

Marks after values point to notes of the source that are not given here.

One data set has as its system tumor. As to the kind of experiment: Anti-tumor activity compared with a compound of the invention (no method given). To be noted: compared with a respective comparative compound according to the invention.
Data set [1] in a line: Preventive effect against the growth of Ehrlich ascites tumor (method A). In kind it is in vivo, mice. To be noted: mouse, in vivo, ip; Maximum Tolerated Dose: maximum dose with 100% inhibition of Ehrlich ascites tumor growth without death of mice; dose column in mg/kg/day. As to the method:
(§1) (A) Preventive effect against the growth of Ehrlich ascites tumor:
(§2) 10^6 tumor cells of Ehrlich ascites carcinoma were inoculated intraperitoneally into a group of five female mice (ICR mice, body weight: 19-23 g). A test compound was dissolved in a physiological saline solution. (In the case where CCNU was employed as the test compound, said compound was suspended in a physiological saline solution containing 0.1% NIKKOL HCO-60 (trademark; a surface active agent manufactured by Nikko Chemicals Co. Ltd.)) and administered intraperitoneally to the mice. The administration of the test compound was begun 24 hours after the inoculation of the tumor cells and performed once a day for 5 days. The volume of ascites in the treated mice were measured after 7 days of the experiment.

Data set [2] relates to Ehrlich ascites carcinoma. The data set is described as above. In kind it is in vivo, mice. Here is the method: as §1, §2
For the next data set, the system named is leukemic cells of L-1210. Kind of data set: Effect on the life span of mice implanted with leukemic cells of L-1210 (method B). In kind it is in vivo. The note with it: for ILS (%): Increase in Life Span; for 60-day survivors: mice survived for 60 days/mice used. As to the method:
(B) Effect on the life span of mice implanted with leukemic cells of L-1210:
10^5 leukemic cells of L-1210were inoculated intraperitoneally into a group of four male mice (BDF1 mice, body weight: 19-23 g). A test compound was dissolved in a physiological saline solution and administered intraperitoneally to the mice. The administration of the test compound was begun 24 hours after the inoculation of the leukemic cells and performed once a day for 5 days. The survival days of the treated mice were observed.

Setting [3] is: dose 6.25 mg/kg/day i.p. x 5 days.
[4] abbreviates: dose 12.5 mg/kg/day i.p. x 5 days.
Setting [5] is: dose 25 mg/kg/day i.p. x 5 days.

Take `O=C(NCCCl)N[C@H]1[C@H](O)[C@@H](CO)OC(O)[C@@H]1O` (some centres unmarked) [3 - [3 - (2 - chloroethyl)ureido] - 3 - deoxy - D - glucopyranose]: in the data set with tumor, the anti-tumor activity entry is “lower anti-tumor activity”.
`CCCCN(C(=O)N(CCCl)N=O)[C@@H]1[C@@H](O)[C@@H](OC)O[C@H](CO)[C@H]1O` [Compound 1, 1 - (2 - chloroethyl) - 1 - nitroso - 3 - n - butyl - 3 - (methyl 3 - deoxy - a - D - glucopyranosid - 3 - yl)urea] showed a maximal tolerated dose (MTD) at 168 h in data set [1] of 50 mg/kg/day. In addition, in data set [2] (M. T. D./M. E. D.), the Therapeutic index is reported as 64. For the same compound, the inhibition in vivo at 0.19 mg/kg/day in data set [2] (Mus musculus, Ehrlich, ip, 168 h, dose 0.19 mg/kg/day i.p. x 5 days, read-out: Inhibition ratio (%)) is 14.3%. Further, the inhibition in vivo at 0.39 mg/kg/day in data set [2] (Mus musculus, Ehrlich, ip, 168 h, dose 0.39 mg/kg/day i.p. x 5 days, read-out: Inhibition ratio (%)) is 59.5%. The inhibition in vivo at 0.78 mg/kg/day in data set [2] (Mus musculus, Ehrlich, ip, 168 h, dose 0.78 mg/kg/day i.p. x 5 days, read-out: Inhibition ratio (%)) came to 100%. For the same compound, in data set [2] (Mus musculus, Ehrlich, ip, 168 h, dose 3.12 mg/kg/day i.p. x 5 days, read-out: Inhibition ratio (%)), the inhibition in vivo at 3.12 mg/kg/day stood at 100%. The inhibition in vivo at 12.5 mg/kg/day in data set [2] (Mus musculus, Ehrlich, ip, 168 h, dose 12.5 mg/kg/day i.p. x 5 days, read-out: Inhibition ratio (%)) is 100%. For the same compound, in data set [2] (Mus musculus, Ehrlich, ip, 168 h, dose 50 mg/kg/day i.p. x 5 days, read-out: Inhibition ratio (%)), the inhibition in vivo at 50 mg/kg/day is 100%. Besides, the minimal effective dose in data set [2] (Mus musculus, Ehrlich, ip, 168 h, minimum effective dose which shows 100% inhibition for the growth of the ascites tumor, dose column in mg/kg/day, read-out: MED) was found to be 0.78 mg/kg/day. Besides, the “Toxic” value in data set [2] (dose 100 mg/kg/day i.p. x 5 days, group of five mice) was “Toxic (4/5)*”. The results for the “ILS (%)” value with leukemic cells of L-1210 (setting [3]), in the data set with leukemic cells of L-1210 (setting [4]) and with leukemic cells of L-1210 (setting [5]) were 111.3%, more than 745.1% and more than 745.1%, respectively. The “Mean survival days (T/C)” value with leukemic cells of L-1210 (T (treated mice), dose 6.25 mg/kg/day i.p. x 5 days) is 15.0/7.1 days; in the data set on leukemic cells of L-1210 (T (treated mice), dose 12.5 mg/kg/day i.p. x 5 days), >60.0/7.1 days; with leukemic cells of L-1210 (T (treated mice; figure after the slash is untreated control C), dose 25 mg/kg/day i.p. x 5 days), >60.0/7.1 days. Besides, the 60-day survivors was 0/4 with leukemic cells of L-1210 (setting [3]), 4/4 in the data set on leukemic cells of L-1210 (setting [4]) and 4/4 with leukemic cells of L-1210 (setting [5]).
